# Assay results as given in PMC10741979, “Inhibition of NMDA Receptor Activation in the Rostral Ventrolateral Medulla by Amyloid-β Peptide in Rats” (Biomolecules, 2023).
# What was measured:
# Assay type in all cases: in vivo, rats
# [1] = tested on: NMDA receptors in the RVLM; test: NMDA-induced pressor responses in the RVLM after ICV drug administration
# Source text: (§1) The procedure for ICV administration of anesthetized rats was similar to those described in our previous study. Adult male Sprague Dawley 8–10 weeks old rats (300–400 g) were used in this experiment under urethane anesthetized (1.2–1.5 g/kg i.p.). The femoral artery was cannulated with polyethylene tubing (PE 50) and connected with its output to BIOPAC Systems Inc. (MP100 or MP160) to measure pulsatile and mean arterial pressure. After a set of blood pressure recordings, each rat was arranged in a stereotaxic frame for ICV and RVLM microinjection using a stainless still needle connected to the Hamilton microsyringes (10 µL). Drugs were microinjected using a syringe pump (KDS 100) at a rate of 10 µL/min. The magnitude of increases in the blood pressure (pressor responses) induced by microinjection of NMDA (0.14 nmol, 100 nL) into the RVLM every 30 min was used as an index of NMDA receptor function in the RVLM. Aβ and 0.9% saline (5 µL) were applied intracerebroventricularly. The data were processed and calculated before the treatment and at a different period after drug administration.
# All values are expressed as mean ± SEM and statistically analyzed using GraphPad Prism version 9.0 for Windows (GraphPad Software, San Diego, CA, USA). We analyzed the original data for NMDA-induced increases in MAP (mmHg) before and after applications of Aβ statistically. The time-effect relationship of Aβ on NMDA-induced pressor responses was analyzed using the repeated measure one-way ANOVA followed by Bonferroni’s multiple comparison post-test. p ≤ 0.05 is considered statistically significant. We compared the effects of Aβ on NMDA-increased mean arterial pressure to the control and expressed them as percentage changes; the peak amplitude of NMDA-induced pressor responses before the application of Aβ is taken as control (i.e., 100%). Immunohistochemical data and ELISA data were analyzed using an unpaired t-test. p ≤ 0.05 is considered statistically significant.
# [2] = tested on: NMDA receptors in the RVLM; test: Pressor response to microinjection of NMDA into the RVLM; conditions: 0.14 nmol
# Source text: as §1
# [3] = tested on: pGluN2B-serine1480; test: Immunofluorescence, number of pGluN2B-serine1480-IF neurons in the RVLM; conditions: 10 min after ICV 2 nmol; mean ± SEM, n = 6; saline group 45.9 ± 1.0 (n = 8); significant difference
# Protocol: (§2) The procedure of immunostaining of RVLM tissue sections was similar to those previously described. The animals were anesthetized with i.p. urethane (1.2–1.5 g/kg). The rat was sacrificed at 10 min following ICV administration of Aβ or saline by transcardial perfusion with 50 mL of saline followed by 300–400 mL of paraformaldehyde (4%) in 0.1 M phosphate buffer (pH 7.4). The RVLM was post-fixed in the same fixative overnight and then cryoprotected in 30% sucrose in 0.05 M phosphate buffer (pH 7.4) for 48 h. Coronal brainstem sections (30 μm) were cut through the segments using a cryostat (Leica CM3050S, Leica Microsystems Nussloch GmbH, Nussloch, Germany). […] For the relative quantification of immunoreactivity, each image field was captured using a CCD camera mounted on a microscope (Nikon Eclipse E800, Corporation, Tokyo, Japan). […] The average number of immunoreactive (IR) neurons on both sides per section was counted and averaged. We randomly took 4–6 sections per animal and calculated the average number of IR neurons representing the animal’s immunoreactivity to the antibody.
# (§3) All values are expressed as mean ± SEM and statistically analyzed using GraphPad Prism version 9.0 for Windows (GraphPad Software, San Diego, CA, USA). We analyzed the original data for NMDA-induced increases in MAP (mmHg) before and after applications of Aβ statistically. […]
# [4] = tested on: GluN2B; test: Immunofluorescence, number of GluN2B-IF neurons in the RVLM; conditions: 10 min after ICV 2 nmol; mean ± SEM, n = 7; saline group 55.2 ± 1.4
# Protocol: as §2, §3
# [5] = tested on: GluN1; test: Immunohistochemistry, number of GluN1-immunoreactive neurons in the RVLM; conditions: 10 min after ICV 2 nmol; mean ± SEM, n = 6; saline group 63.2 ± 2.4; no significant difference
# Protocol: as §2, §3
# [6] = tested on: pGluN1-serine896; test: Immunohistochemistry, number of pGluN1-serine896-immunoreactive neurons in the RVLM; conditions: 10 min after ICV 2 nmol; mean ± SEM, n = 6; saline group 48.9 ± 1.8; no significant difference
# Protocol: as §2, §3
# [7] = ICV 2 nmol (Aβ1-40 n = 14, Aβ1-42 n = 9), NMDA 0.14 nmol into RVLM every 30 min, urethane-anesthetized male SD rats
compound,measurement,setting,value
CC12CC3CC(C)(C1)CC(N)(C3)C2 [memantine],effect on NMDA-induced pressor responses in the RVLM,"[1]; ICV 9 nmol alone, n = 6, 10 and 40 min after administration",did not produce any noticeable changes
same,effect of co-administration on the inhibitory effects of Aβ1-40 on NMDA-induced pressor responses,"[1]; ICV memantine 9 nmol with Aβ1-40 2 nmol, n = 4",disappeared
"Aβ1-42: soluble human amyloid-beta peptide 1-42, purchased from Taiclone Biotech Corp.",effect on NMDA-induced pressor responses in the RVLM,[1]; [7],did not produce any noticeable changes
same,effect on NMDA-induced pressor responses in the RVLM on co-administration with ifenprodil,"[1]; ICV Aβ1-42 2 nmol with ifenprodil 0.5 nmol, n = 6",little effect
same,effect on NMDA-induced pressor responses in the RVLM on co-administration with memantine,"[1]; ICV Aβ1-42 2 nmol with memantine 9 nmol, n = 6",did not show noticeable changes
"CN[C@H](CC(=O)O)C(=O)O [NMDA, N-methyl-D-aspartate]",duration of pressor responses,[2]; 100 nL into RVLM,10 to 15 min
same,onset of pressor responses,[2]; 100 nL into RVLM,≤ 2 min
same,effect of microinjection into the RVLM on MAP,"[2]; 100 nL, at intervals of 30 min, urethane-anesthetized male SD rats",induced an increase in MAP
"Aβ1-40: soluble human amyloid-beta peptide 1-40, purchased from Taiclone Biotech Corp.",number of pGluN2B-serine1480-IF neurons in the RVLM,[3],52.6 ± 2.0
same,number of GluN2B-IF neurons in the RVLM,[4],59.2 ± 2.7
same,number of GluN1-IR neurons in the RVLM,[5],63.2 ± 3.8
same,effect on NMDA-induced pressor responses in the RVLM,"[1]; ICV 0.2 nmol, n = 12, NMDA 0.14 nmol into RVLM every 30 min, urethane-anesthetized male SD rats",slight reduction
same,effect on NMDA-induced pressor responses in the RVLM,[1]; [7],significantly inhibited
same,number of pGluN1-serine896-IR neurons in the RVLM,[6],46.4 ± 0.8
CC(C(O)c1ccc(O)cc1)N1CCC(Cc2ccccc2)CC1 (centres unmarked) [ifenprodil],effect on NMDA-induced pressor responses in the RVLM,"[1]; ICV 0.5 nmol alone, n = 5",did not produce any noticeable changes
same,effect on NMDA-induced pressor responses in the RVLM,"[1]; ICV 2.5 nmol alone, n = 5",significantly inhibited
same,effect of co-administration on the inhibitory effects of Aβ1-40 on NMDA-induced pressor responses,"[1]; ICV ifenprodil 0.5 nmol with Aβ1-40 2 nmol, n = 6",attenuated the inhibitory effects
